Source: patent publication US8653091B2, “Pyrid-2yl fused heterocyclic compounds, and compositions and uses thereof” (Evotec AG, priority 2007, dated 2014)

Key:
P2X3 = P2X3 (Homo sapiens (Human), UniProt P56373); experiment: Calcium uptake assay (P2X antagonist assay), P2X3; format: cell-based; conditions: inhibition of agonist-induced calcium influx
From the text: (§1) Human P2X3 (Accession no. NM_002559), P2X2 (Accession no. NM_170682) and Rat P2X3 (Accession no. NM_031075) and P2X2 (Accession no. NM_053656) are cloned into a mammalian expression vector (e.g., pcDNA5/TO or pcDNA3 Invitrogen). The human P2X2/3 chimera clone is created as described by Neelands et al, and then cloned into an expression vector as above. Receptors are expressed in cells (e.g., HEK293 or 1321N1 (obtained from the ECACC)) via transient transfection using standard lipid mediated transfection, or by creation of stable transfectants for each receptor. For expression of the P2X2/3 heteromeric receptor, the P2X3 expression vector is stably transfected into a cell line already stably expressing P2X2. P2X2/3 heteromer function is isolated using pharmacological methods. Cell lines are maintained in DMEM+5% Glutamax, the appropriate level of selective antibiotic, and 10% heat inactivated FBS.
(§2) Functional activity of compounds at the P2X receptor is determined by measuring their ability to inhibit agonist-induced calcium influx. Compounds are tested for antagonist activity against the P2X2/3 chimera, the P2X3 homomer, or the P2X2/3 heteromer. At the start of each screening day, the agonist EC50 is determined. Compound % inhibition or IC50s are subsequently determined using a pre-determined agonist concentration (EC50-90 depending on cell line) as a stimulus. The agonists used are αβMeATP, ATP, or other ATP analogs. Compounds may be tested at concentrations ranging from 1 μM to 10 μM.
(§3) To test for antagonist activity, cells expressing the appropriate receptor are seeded onto 96 or 384 well plates 18-24 hours prior to assay. On the day of the assay, cells are loaded with calcium-sensitive fluorescent dye (e.g., Fluo-4 no wash reagent-Invitrogen cat#F36206, or the BD™ PBX Calcium Assay Kit—BD cat#640175) in Hank's Buffered Salt Solution (HESS) with up to 10 mM supplemental CaCl2. Plates are incubated at 37° C. and then equilibrated at room temperature. Antagonism of agonist-induced calcium influx is measured using a fluorescent imaging plate reader (e.g. FLIPR^TETRA, Molecular Devices, Sunnyvale, Calif.). The assay comprises two stages: a pre-treatment phase followed by a treatment phase. Compounds may be tested as follows: For the pre-treatment phase, 50 μL of 3× concentration of test compound in HBSS is added to cells containing 100 μL of dye loading media to achieve a final concentration of 1× test compound. For the treatment phase, at a set interval after pre-treatment (1-30 minutes), 50 μL of 1× test compound plus […] solution is added, resulting in a final concentration of 1× compound and 1× agonist. Fluorescence is measured at 0.1-3 second intervals—with an excitation wavelength of 494 nm and an emission wavelength of 515 nm. Responses are measured as (peak fluorescence after agonist addition) minus (baseline fluorescence prior to treatment). Percent inhibition is calculated as follows: […]
(§4) IC50 values are determined by analyzing dose response data in a 4 parameter logistic fit using GraphPad Prizm.

P2X2/3 = P2X2/3 (Homo sapiens (Human), UniProt P56373+Q9UBL9); experiment: Calcium uptake assay (P2X antagonist assay), P2X2/3; format: cell-based; conditions: inhibition of agonist-induced calcium influx
From the text: as §1, §2, §3, §4

P2X2/3, sequence (Q9UBL9 whole entry): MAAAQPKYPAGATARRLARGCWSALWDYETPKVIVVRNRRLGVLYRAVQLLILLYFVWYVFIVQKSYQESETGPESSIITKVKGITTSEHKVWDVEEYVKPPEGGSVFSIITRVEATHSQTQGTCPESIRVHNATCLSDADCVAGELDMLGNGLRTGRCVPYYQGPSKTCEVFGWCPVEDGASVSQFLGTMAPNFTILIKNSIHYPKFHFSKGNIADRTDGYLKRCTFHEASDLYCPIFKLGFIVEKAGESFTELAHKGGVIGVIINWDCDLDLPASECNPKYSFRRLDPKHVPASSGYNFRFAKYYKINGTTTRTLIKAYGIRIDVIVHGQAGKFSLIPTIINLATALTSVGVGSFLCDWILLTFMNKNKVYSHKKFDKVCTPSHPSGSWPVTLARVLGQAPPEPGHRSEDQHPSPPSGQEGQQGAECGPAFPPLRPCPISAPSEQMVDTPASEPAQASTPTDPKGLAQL
P2X2/3, sequence (P56373 whole entry): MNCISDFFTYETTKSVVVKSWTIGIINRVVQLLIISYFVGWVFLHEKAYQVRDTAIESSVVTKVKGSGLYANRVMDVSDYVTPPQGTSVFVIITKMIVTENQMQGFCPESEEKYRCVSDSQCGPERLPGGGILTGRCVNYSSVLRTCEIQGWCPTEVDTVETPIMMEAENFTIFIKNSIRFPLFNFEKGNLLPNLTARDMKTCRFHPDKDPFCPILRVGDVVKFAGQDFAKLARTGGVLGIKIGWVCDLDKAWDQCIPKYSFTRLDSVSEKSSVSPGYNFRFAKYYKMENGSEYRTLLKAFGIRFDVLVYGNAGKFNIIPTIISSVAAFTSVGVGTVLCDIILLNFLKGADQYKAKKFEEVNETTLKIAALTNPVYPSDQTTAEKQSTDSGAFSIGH
P2X3, sequence (P56373 whole entry): as above

Row | IC50 (P2X3) [nM] | IC50 (P2X2/3) [nM] | Structure (SMILES)
1 | 19 | 1220 | Cc1ccc(N2CCc3ncnc(N[C@H](C)c4ccc(F)cc4)c3C2)nc1 [Compound 49, [(R)-1-(4-Fluoro-phenyl)-ethyl]-[6-(5-methyl-pyridin-2-yl)-5,6,7,8-tetrahydro-pyrido[4,3-d]pyrimidin-4-yl]-amine]
2 | 88 | 4620 | Cc1ccc(N2CCc3ncnc(NC(C)c4ccccc4F)c3C2)nc1 (stereo not drawn) [Compound 12, [1-(2-Fluoro-phenyl)-ethyl]-[6-(5-methyl-pyridin-2-yl)-5,6,7,8-tetrahydro-pyrido[4,3-d]pyrimidin-4-yl]-amine]
3 | 137 |  | COc1ccccc1C(C)Nc1ncnc2c1CN(c1ccc(C)cn1)CC2 (stereo not drawn) [Compound 14, [1-(2-Methoxy-phenyl)-ethyl]-[6-(5-methyl-pyridin-2-yl)-5,6,7,8-tetrahydro-pyrido[4,3-d]pyrimidin-4-yl]-amine]
4 | 119 |  | Cc1ccc(N2CCc3ncnc(NC(C)c4cccc(Cl)c4)c3C2)nc1 (stereo not drawn) [Compound 16, [1-(3-Chloro-phenyl)-ethyl]-[6-(5-methyl-pyridin-2-yl)-5,6,7,8-tetrahydro-pyrido[4,3-d]pyrimidin-4-yl]-amine]
5 | 272 | 3090 | Cc1ccc(N2CCc3ncnc(NC(CO)c4cccnc4)c3C2)nc1 (stereo not drawn) [Compound 62, 2-[6-(5-Methyl-pyridin-2-yl)-5,6,7,8-tetrahydro-pyrido[4,3-d]pyrimidin-4-ylamino]-2-pyridin-3-yl-ethanol]
6 | > 10000 |  | CC[C@H](Nc1ncnc2c1CN(c1ccc(C)cn1)CC2)c1ccccc1 [Compound 45, [6-(5-Methyl-pyridin-2-yl)-5,6,7,8-tetrahydro-pyrido[4,3-d]pyrimidin-4-yl]-((S)-1-phenyl-propyl)-amine]
7 | 408 |  | CC[C@@H](Nc1ncnc2c1CN(c1ccc(C)cn1)CC2)c1ccccc1 [Compound 42]
8 | 212 |  | Cc1ccc(N2CCc3ncnc(NC(C)c4ccc(Br)cc4)c3C2)nc1 (stereo not drawn) [Compound 28, [1-(4-Bromo-phenyl)-ethyl]-[6-(5-methyl-pyridin-2-yl)-5,6,7,8-tetrahydro-pyrido[4,3-d]pyrimidin-4-yl]-amine]
9 | 603 |  | CCc1ccc(C(C)Nc2ncnc3c2CN(c2ccc(C)cn2)CC3)cc1 (stereo not drawn) [Compound 13, [1-(4-Ethyl-phenyl)-ethyl]-[6-(5-methyl-pyridin-2-yl)-5,6,7,8-tetrahydro-pyrido[4,3-d]pyrimidin-4-yl]-amine]
10 | 161 |  | Cc1ccc(N2CCc3ncnc(N[C@H](CO)c4ccccc4)c3C2)nc1 [Compound 37, (S)-2-[6-(5-Methyl-pyridin-2-yl)-5,6,7,8-tetrahydro-pyrido[4,3-d]pyrimidin-4-ylamino]-2-phenyl-ethanol]
11 | 125 |  | Cc1ccc(N2CCc3ncnc(NC(C)c4ccccc4Cl)c3C2)nc1 (stereo not drawn) [Compound 15, [1-(2-Chloro-phenyl)-ethyl]-[6-(5-methyl-pyridin-2-yl)-5,6,7,8-tetrahydro-pyrido[4,3-d]pyrimidin-4-yl]-amine]
12 | 33 |  | C[C@@H](Nc1ncnc2c1CN(c1ccc(Cl)cn1)CC2)c1ccc(C(F)(F)F)nc1 [Compound 52, [6-(5-Chloro-pyridin-2-yl)-5,6,7,8-tetrahydro-pyrido[4,3-d]pyrimidin-4-yl]-[(R)-1-(6-trifluoromethyl-pyridin-3-yl)-ethyl]-amine]
13 | 3560 |  | FC(F)(F)c1ccc([C@H](Nc2ncnc3c2CN(c2ccc(Cl)cn2)CC3)C2CC2)cn1 [Compound 53, [6-(5-Chloro-pyridin-2-yl)-5,6,7,8-tetrahydro-pyrido[4,3-d]pyrimidin-4-yl]-[(R)-cyclopropyl-(6-trifluoromethyl-pyridin-3-yl)-methyl]-amine]
14 | 181 |  | COc1ccc([C@@H](C)Nc2ncnc3c2CN(c2ccc(C)cn2)CC3)cc1 [Compound 43, [(R)-1-(4-Methoxy-phenyl)-ethyl]-[6-(5-methyl-pyridin-2-yl)-5,6,7,8-tetrahydro-pyrido[4,3-d]pyrimidin-4-yl]-amine]
15 | > 10000 |  | C[C@H](Nc1ncnc2c1CN(c1ccc(Cl)cn1)CC2)c1ccc(C(F)(F)F)nc1 [Compound 51, (S)-6-(5-Chloropyridin-2-yl)-N-(1-(6-(trifluoromethyl)pyridin-3-yl)ethyl)-5,6,7,8-tetrahydropyrido[4,3-d]pyrimidin-4-amine]
16 | 344 |  | C[C@@H](Nc1ncnc2c1CN(c1ccc(Cl)cn1)CC2)c1ccc(Cl)cc1 [Compound 40, [(R)-1-(4-Chloro-phenyl)-ethyl]-[6-(5-chloro-pyridin-2-yl)-5,6,7,8-tetrahydro-pyrido[4,3-d]pyrimidin-4-yl]-amine]
17 | > 7200 |  | Cc1ccc(N2CCc3ncnc(N[C@@H](C)c4ccc(Cl)cc4)c3C2)nc1 [Compound 6, [(S)-1-(4-Chloro-phenyl)-ethyl]-[6-(5-methyl-pyridin-2-yl)-5,6,7,8-tetrahydro-pyrido[4,3-d]pyrimidin-4-yl]-amine]
18 | 212 |  | Cc1ccc(N2CCc3ncnc(NC(C)c4ccncc4)c3C2)nc1 (stereo not drawn) [Compound 9, [6-(5-Methyl-pyridin-2-yl)-5,6,7,8-tetrahydro-pyrido[4,3-d]pyrimidin-4-yl]-(1-pyridin-4-yl-ethyl)-amine]
19 | 245 |  | Cc1ccc(N2CCc3ncnc(NC(C)c4ccc(C(F)(F)F)cc4)c3C2)nc1 (stereo not drawn) [Compound 26, [6-(5-Methyl-pyridin-2-yl)-5,6,7,8-tetrahydro-pyrido[4,3-d]pyrimidin-4-yl]-[1-(4-trifluoromethyl-phenyl)-ethyl]-amine]
20 |  | > 10000 | FC(F)(F)c1ccc([C@@H](Nc2ncnc3c2CN(c2ccc(Cl)cn2)CC3)C2CC2)cn1 [Compound 54, [6-(5-Chloro-pyridin-2-yl)-5,6,7,8-tetrahydro-pyrido[4,3-d]pyrimidin-4-yl]-[(S)-cyclopropyl-(6-trifluoromethyl-pyridin-3-yl)-methyl]-amine]
21 | 397 |  | CCC(Nc1ncnc2c1CN(c1ccc(C)cn1)CC2)c1ccccc1 (stereo not drawn) [Compound 36, [6-(5-Methyl-pyridin-2-yl)-5,6,7,8-tetrahydro-pyrido[4,3-d]pyrimidin-4-yl]-(1-phenyl-propyl)-amine]
22 | 301 |  | Cc1ccc(N2CCc3ncnc(NC(C)c4cccc(C(F)(F)F)c4)c3C2)nc1 (stereo not drawn) [Compound 4, [6-(5-Methyl-pyridin-2-yl)-5,6,7,8-tetrahydro-pyrido[4,3-d]pyrimidin-4-yl]-[1-(3-trifluoromethyl-phenyl)-ethyl]-amine]
23 | 415 |  | Cc1ccc(N2CCc3ncnc(NC(C)c4ccc(Cl)cc4Cl)c3C2)nc1 (stereo not drawn) [Compound 27, [1-(2,4-Dichloro-phenyl)-ethyl]-[6-(5-methyl-pyridin-2-yl)-5,6,7,8-tetrahydro-pyrido[4,3-d]pyrimidin-4-yl]-amine]

Row | Structure (SMILES) | IC50 (P2X3) [nM] | IC50 (P2X2/3) [nM]
24 | Cc1ccc(N2CCc3ncnc(N[C@H](CCO)c4ccc(C)nc4)c3C2)nc1 [Compound 61, (R)-3-(6-Methyl-pyridin-3-yl)-3-[6-(5-methyl-pyridin-2-yl)-5,6,7,8-tetrahydro-pyrido[4,3-d]pyrimidin-4-ylamino]-propan-1-ol] | 28 | 133
25 | Cc1ccc(N2CCc3ncnc(N[C@H](C)c4ccc(C(F)(F)F)nc4)c3C2)nc1 [Compound 50, (R)-6-(5-Methylpyridin-2-yl)-N-(1-(6-(trifluoromethyl)pyridin-3-yl)ethyl)-5,6,7,8-tetrahydropyrido[4,3-d]pyrimidin-4-amine] | 15 | 279
